Publication PMC9207812 (ACS chemical biology, 2022)
No end group written: not given here.

Key:
Format in all cases: binding
WDR5 D172A [1] = molecular target: T1, WDR5 D172A (Homo sapiens, UniProt P61964, D172A); test: Biolayer interferometry (BLI), D172A; conditions: for koff: pH 7.5, read-out: koff (dissociation rate constant); for kon: pH 7.5, read-out: kon (association rate constant)
WDR5 P216L [2] = molecular target: T2, WDR5 P216L (Homo sapiens, UniProt P61964, P216L); test: Biolayer interferometry (BLI), P216L; conditions: for koff: pH 7.5, read-out: koff (dissociation rate constant); for kon: pH 7.5, read-out: kon (association rate constant)
WDR5 Y260H [3] = molecular target: T3, WDR5 Y260H (Homo sapiens, UniProt P61964, Y260H); test: Biolayer interferometry (BLI), Y260H; conditions: for koff: pH 7.5, read-out: koff (dissociation rate constant); for kon: pH 7.5, read-out: kon (association rate constant)
WDR5 F133L [4] = molecular target: T4, WDR5 F133L (Homo sapiens, UniProt P61964, F133L); test: Biolayer interferometry (BLI), F133L; conditions: for increase in KD-BLI: F133L versus native WDR5; for koff: pH 7.5, read-out: koff (dissociation rate constant); for kon: pH 7.5, read-out: kon (association rate constant)
WDR5 S175L [5] = molecular target: T5, WDR5 S175L (Homo sapiens, UniProt P61964, S175L); test: Biolayer interferometry (BLI), S175L; conditions: for koff: pH 7.5, read-out: koff (dissociation rate constant); for kon: pH 7.5, read-out: kon (association rate constant)
WDR5 S218F [6] = molecular target: T6, WDR5 S218F (Homo sapiens, UniProt P61964, S218F); test: Biolayer interferometry (BLI), S218F; conditions: for koff: pH 7.5, read-out: koff (dissociation rate constant); for kon: pH 7.5, read-out: kon (association rate constant)
WDR5 D172A [7] = molecular target: T1, WDR5 D172A; test: Steady-state fluorescence polarization (FP), D172A
WDR5 P216L [8] = molecular target: T2, WDR5 P216L; test: Steady-state fluorescence polarization (FP), P216L
WDR5 Y260H [9] = molecular target: T3, WDR5 Y260H; test: Steady-state fluorescence polarization (FP), Y260H
WDR5 F133L [10] = molecular target: T4, WDR5 F133L; test: Steady-state fluorescence polarization (FP), F133L
WDR5 S175L [11] = molecular target: T5, WDR5 S175L; test: Steady-state fluorescence polarization (FP), S175L
WDR5 S218F [12] = molecular target: T6, WDR5 S218F; test: Steady-state fluorescence polarization (FP), S218F

Row | Compound | Kd (WDR5 D172A [1]) [nM] | koff (WDR5 D172A [1]) [s⁻¹] | kon (WDR5 D172A [1]) [M⁻¹ s⁻¹] | Kd (WDR5 P216L [2]) [nM] | koff (WDR5 P216L [2]) [s⁻¹] | kon (WDR5 P216L [2]) [M⁻¹ s⁻¹] | Kd (WDR5 Y260H [3]) [nM] | koff (WDR5 Y260H [3]) [s⁻¹] | kon (WDR5 Y260H [3]) [M⁻¹ s⁻¹] | Kd (WDR5 F133L [4]) [nM] | Kd (WDR5 S175L [5]) [nM] | koff (WDR5 S175L [5]) [s⁻¹] | Kd (WDR5 S218F [6]) [nM] | koff (WDR5 S218F [6]) [s⁻¹] | Kd (WDR5 D172A [7]) [nM] | Kd (WDR5 P216L [8]) [nM] | Kd (WDR5 Y260H [9]) [nM] | Kd (WDR5 F133L [10]) [nM] | Kd (WDR5 S175L [11]) [nM] | Kd (WDR5 S218F [12]) [nM] | further results
1 | INPTGCARSEPKIL-NH2 [MLL2Win] | 240 ± 10 | 0.014 ± 0.001 | 57000 ± 6000 | 200 ± 50 | 0.011 ± 0.002 | 56000 ± 8000 | 200 ± 20 | 0.013 ± 0.001 | 66000 ± 9000 | 8300 | 130 ± 10 | 0.0063 ± 0.0001 | 640 ± 20 | 0.025 ± 0.002 | 25 ± 4 | 18 ± 3 | 34 ± 4 | 2100 | 11 ± 1 | 94 ± 7 | increase in KD-BLI (WDR5 F133L [4]): between one and two orders of magnitude; koff (WDR5 F133L [4]): 0.14 ± 0.02 s⁻¹; kon (WDR5 F133L [4]): 16000 ± 1000 M⁻¹ s⁻¹; kon (WDR5 S175L [5]): 49000 ± 4000 M⁻¹ s⁻¹; kon (WDR5 S218F [6]): 40000 ± 2000 M⁻¹ s⁻¹
2 | LNPHGAARAEVYLS-NH2 [MLL4Win] | 1400 | 0.051 ± 0.01 | 37000 ± 4000 | 9900 | 0.22 ± 0.05 | 19000 ± 3000 |  | 0.047 ± 0.028 | 24000 ± 3000 | ≥ 100000 | 4200 | 0.13 ± 0.004 | 3400 | 0.071 ± 0.001 | 78 ± 3 | 690 ± 60 | 130 ± 10 | 8800 | 280 ± 30 | 420 ± 40 | koff (WDR5 F133L [4]): > 1 s⁻¹; kon (WDR5 S175L [5]): 30000 ± 1000 M⁻¹ s⁻¹; kon (WDR5 S218F [6]): 20000 ± 2000 M⁻¹ s⁻¹
3 | EHQTGSARSEGYYP-NH2 [SETd1AWin] | 900 ± 240 | 0.11 ± 0.03 | 130000 ± 10000 | 380 ± 20 | 0.033 ± 0.004 | 86000 ± 8000 | 1100 | 0.098 ± 0.029 | 88000 ± 13000 | 30000 | 1400 | 0.089 ± 0.03 | 830 ± 110 | 0.046 ± 0.007 | 61 ± 2 | 39 ± 2 | 140 ± 20 | 5700 | 92 ± 7 | 100 ± 10 | increase in KD-BLI (WDR5 F133L [4]): between one and two orders of magnitude; koff (WDR5 F133L [4]): 0.69 ± 0.04 s⁻¹; kon (WDR5 F133L [4]): 26000 ± 3000 M⁻¹ s⁻¹; kon (WDR5 S175L [5]): 61000 ± 7000 M⁻¹ s⁻¹; kon (WDR5 S218F [6]): 56000 ± 4000 M⁻¹ s⁻¹
4 | VNPTGCARSEPKMS-NH2 [MLL3Win] | 140 ± 10 | 0.0093 ± 0.0019 | 65000 ± 13000 | 200 ± 30 | 0.011 ± 0.003 | 53000 ± 7000 | 110 ± 20 | 0.0077 ± 0.0006 | 64000 ± 2000 | 3700 | 330 ± 20 | 0.016 ± 0.002 | 530 ± 20 | 0.021 ± 0.003 | 12 ± 1 | 19 ± 1 | 22 ± 2 | 1000 | 23 ± 1 | 80 ± 7 | increase in KD-BLI (WDR5 F133L [4]): between one and two orders of magnitude; koff (WDR5 F133L [4]): 0.1 ± 0.01 s⁻¹; kon (WDR5 F133L [4]): 36000 ± 21000 M⁻¹ s⁻¹; kon (WDR5 S175L [5]): 49000 ± 3000 M⁻¹ s⁻¹; kon (WDR5 S218F [6]): 39000 ± 5000 M⁻¹ s⁻¹
5 | LNPHGSARAEVHLS-NH2 [MLL1Win] | ≥ 100000 | > 1 |  | ≥ 100000 | > 1 |  | ≥ 100000 | > 1 |  |  | ≥ 100000 | > 1 | ≥ 100000 | > 1 | 5600 | > 14600 | 9700 | > 53000 | 4800 | 8100 | 
6 | CC(C)[C@H](NC(=O)[C@H](Cc1c[nH]cn1)NC(=O)[C@@H](N)CCC(=O)O)C(=O)N[C@H](C(=O)NCC(=O)N[C@@H](CS)C(=O)N[C@@H](C)C(=O)N[C@@H](CCCNC(=N)N)C(=O)N[C@@H](CO)C(=O)N[C@@H](CCC(=O)O)C(=O)NCC(=O)N[C@@H](Cc1ccccc1)C(=O)N[C@@H](Cc1ccc(O)cc1)C(=O)N[C@H](C(N)=O)[C@@H](C)O)[C@@H](C)O [SETd1BWin] | 260 ± 10 | 0.023 ± 0.003 | 89000 ± 14000 | 370 ± 40 | 0.03 ± 0.005 | 80000 ± 8000 | 230 ± 10 | 0.023 ± 0.003 | 100000 ± 10000 | 6000 | 56 ± 3 | 0.0049 ± 0.0003 | 360 ± 20 | 0.023 ± 0.002 | 18 ± 1 | 28 ± 2 | 23 ± 2 | 820 ± 30 | 11 ± 1 | 37 ± 1 | increase in KD-BLI (WDR5 F133L [4]): between one and two orders of magnitude; koff (WDR5 F133L [4]): 0.24 ± 0.02 s⁻¹; kon (WDR5 F133L [4]): 43000 ± 12000 M⁻¹ s⁻¹; kon (WDR5 S175L [5]): 84000 ± 6000 M⁻¹ s⁻¹; kon (WDR5 S218F [6]): 63000 ± 6000 M⁻¹ s⁻¹
